Molecular target: T1, p38 MAP kinase (Homo sapiens, UniProt Q16539)
T1 construct: made in house; host or cells: E. coli (co-expressed with SEK-1 and MEKK)
Assay: Inhibition of p-38 (MAP) kinase in vitro assay (transfer of γ-33P from ATP to Myelin Basic Protein)
Assay type: biochemical
Details: phosphorylated recombinant p38 MAP kinase, MBP substrate, γ-33P-ATP, 30° C.; read-out: p-38 inhibitory activity, IC50
Description: Inhibition Of p-38 (MAP) Kinase . . . In Vitro Assay
The p-38 MAP kinase inhibitory activity of compounds of this invention in vitro was determined by measuring the transfer of the γ-phosphate from γ-^33P-ATP by p-38 kinase to Myelin Basic Protein (MBP), using the a minor modification of the method described in Ahn, N. G.; et al. J. Biol. Chem. Vol. 266(7), 4220-4227, (1991).
The phosphorylated form of the recombinant p38 MAP kinase was expressed with SEK-1 and MEKK in E. Coli and then purified by affinity chromatography using a Nickel column.
The phosphorylated p38 MAP kinase was diluted in kinase buffer (20 mM 3-(N-morpholino)propanesulfonic acid, pH 7.2, 25 mM β-glycerol phosphate, 5 mM ethylene glycol-bis (beta-aminoethyl ether)-N,N,N′,N′-tetraacetic acid, 1 mM sodium vanadate, 1 mM dithiothreitol, 40 mM magnesium chloride). Test compound dissolved in DMSO or only DMSO (control) was added and the samples were incubated for 10 min at 30° C. The kinase reaction was initiated by the addition of a substrate cocktail containing MBP and γ-^33P-ATP. After incubating for an additional 20 min at 30° C., the reaction was terminated by adding 0.75% phosphoric acid. The phosphorylated MBP was then separated from the residual γ-^33P-ATP using a phosphocellulose membrane (Millipore, Bedford, Mass.) and quantitated using a scintillation counter (Packard, Meriden, Conn.).
Compounds of the invention were active in this assay. The p-38 inhibitory activities (expressed as IC50, the concentration causing 50% inhibition of the p-38 enzyme being assayed) of some compounds of the invention are: […]

T1 sequence (Q16539 whole entry): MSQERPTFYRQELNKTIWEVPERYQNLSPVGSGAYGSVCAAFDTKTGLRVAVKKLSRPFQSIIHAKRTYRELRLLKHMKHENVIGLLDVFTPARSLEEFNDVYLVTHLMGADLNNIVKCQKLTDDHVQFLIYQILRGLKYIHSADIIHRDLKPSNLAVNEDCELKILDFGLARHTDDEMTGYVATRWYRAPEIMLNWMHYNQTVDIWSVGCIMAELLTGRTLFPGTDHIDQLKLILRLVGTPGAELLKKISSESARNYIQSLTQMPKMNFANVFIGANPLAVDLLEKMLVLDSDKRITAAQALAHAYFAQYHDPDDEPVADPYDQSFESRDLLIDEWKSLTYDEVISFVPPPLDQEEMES

Compound	IC50
Nc1c(C(=O)c2ccccc2)cc(-c2cccnc2)n1-c1ccc(F)cc1 [Cpd 1]	164 nM
COc1cccc(C(=O)c2cc(-c3cccnc3)n(-c3ccc(F)cc3)c2N)c1 [Cpd 2]	169 nM
Nc1c(C(=O)c2cccc(O)c2)cc(-c2cccnc2)n1-c1ccc(F)cc1 [Cpd 3]	468 nM
Nc1c(C(=O)c2cccc(OC[C@H](O)CO)c2)cc(-c2cccnc2)n1-c1ccc(F)cc1 [Cpd 4]	120 nM

From US6696471B2, “Aminopyrrole compounds” (Syntex (U.S.A.) LLC, priority 2001, dated 2004)
